# Source: patent US20250312291A1, “DIARYLHEPTANOID BASED MEDICINAL PREPARATION AND METHOD OF PREPARATION OF THE SAME” (ARJUNA NATURAL PRIVATE LIMITED, priority 2022, published 2025)
# Test system: Amphistome ova
# Experiment: Deworming in cows positive for Amphistome ova (ova checked from dung matter)
# Type: in vivo
# Settings: before treatment (baseline)
# Source text: In one embodiment efficacy of diarylheptanoid metal complex on deworming in cows was studied. Cows positive for Amphistome ova were selected and treated with diarylheptanoid metal complex. Deworming in cows is important for several reasons. First, internal parasites or worms can cause significant harm to cow health and productivity. These parasites can cause damage to the cow's gastrointestinal tract, leading to reduced feed intake, weight loss, and poor growth rates. In severe cases, internal parasites can even lead to death. Second, internal parasites can also have economic impacts on the farm. Infected cows may have reduced milk production and lower-quality meat, which can lead to financial losses for the farmer. Third, internal parasites can also be a source of infection for other animals on the farm. Some parasites can be passed from cow to cow or from cow to other species such as sheep or goats. After 30 days of treatment with diarylheptanoid calcium complex, the number of Ova in the dung matter is nil compared to untreated control.
# Twenty cows that were positive for Amphistome ova were selected for this study. Cows were grouped into four groups with 5 cows in each group. Cows were segregated as follows.
# Before and after 30 days of treatment ova was checked from the dung matter.
compound,measurement,value
CCCSc1ccc2nc(NC(=O)OC)[nH]c2c1 [Albendazole],Ova Before,+ + + + +
